Twelve compounds from US6177438A, “Morphinan derivatives and pharmaceutical use thereof” (priority 1993, dated 2001) can be followed below.

Structures can show the parent of a compound that is named as a salt. Where two headings read alike, the source gives them in different places.

The subject of data set [1] is extracted mouse vas deferens preparation. The data set is described as follows: Opioid activity test using an extracted mouse vas deferens preparation (suppression of electrically induced contractions). To be noted: electrical stimulus 0.1 Hz, 37° C. The arrangement: species or system male ddy mouse. In short, it runs like this: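 Male ddY mouse vas deferens in Krebs-Henseleit at 37° C, 5% CO2/95% O2, field-stimulated at 0.1 Hz, 5.0 ms; isometric contractions recorded. After adding naloxone, NTI or norBNI, test compound was added cumulatively after ~20 min; Ke derived from the difference in agonist efficacies.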

For the next data set, the target named is T1, μ receptor (Mus musculus, UniProt P42866).
T1 construct: naloxone as mu antagonist (printed 'agonist')
T1 sequence (P42866 whole entry): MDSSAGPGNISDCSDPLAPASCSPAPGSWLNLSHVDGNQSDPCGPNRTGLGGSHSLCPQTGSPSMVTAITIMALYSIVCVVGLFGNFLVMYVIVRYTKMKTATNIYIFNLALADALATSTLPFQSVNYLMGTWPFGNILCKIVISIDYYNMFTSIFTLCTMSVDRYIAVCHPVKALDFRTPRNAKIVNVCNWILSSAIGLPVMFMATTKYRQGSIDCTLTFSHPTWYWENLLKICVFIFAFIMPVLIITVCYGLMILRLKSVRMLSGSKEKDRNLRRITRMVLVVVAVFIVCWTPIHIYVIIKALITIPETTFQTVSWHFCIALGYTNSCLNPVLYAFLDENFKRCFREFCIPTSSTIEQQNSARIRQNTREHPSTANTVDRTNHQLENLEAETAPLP
The data set is described as follows: Opioid activity test using an extracted mouse vas deferens preparation, Ke with naloxone. The arrangement: species or system male ddy mouse. The following applies: naloxone added.

In the next data set the target is T2, δ receptor (Mus musculus, UniProt P32300).
T2 construct: The vas deferens extracted from the animal was suspended in a Magnus tube; from tissue; host or cells: mouse (male ddy) vas deferens
T2 sequence (P32300 whole entry): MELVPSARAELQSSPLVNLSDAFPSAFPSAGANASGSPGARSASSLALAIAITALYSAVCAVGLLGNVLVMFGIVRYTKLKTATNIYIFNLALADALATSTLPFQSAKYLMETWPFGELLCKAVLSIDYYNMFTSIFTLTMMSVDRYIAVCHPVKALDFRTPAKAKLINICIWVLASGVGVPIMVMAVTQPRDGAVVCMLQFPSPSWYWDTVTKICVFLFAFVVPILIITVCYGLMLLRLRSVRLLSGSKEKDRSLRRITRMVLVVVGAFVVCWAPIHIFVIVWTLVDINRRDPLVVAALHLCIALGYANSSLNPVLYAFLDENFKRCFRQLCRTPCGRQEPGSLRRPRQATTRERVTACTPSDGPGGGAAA
Also on record: species or system male ddy mouse. The following applies: mouse vas deferens; for Ke, NTI: δ, NTI added.

In the next data set the target is T3, κ receptor (Mus musculus, UniProt P33534).
T3 construct: from tissue; host or cells: mouse (male ddy) vas deferens
T3 sequence (P33534 whole entry): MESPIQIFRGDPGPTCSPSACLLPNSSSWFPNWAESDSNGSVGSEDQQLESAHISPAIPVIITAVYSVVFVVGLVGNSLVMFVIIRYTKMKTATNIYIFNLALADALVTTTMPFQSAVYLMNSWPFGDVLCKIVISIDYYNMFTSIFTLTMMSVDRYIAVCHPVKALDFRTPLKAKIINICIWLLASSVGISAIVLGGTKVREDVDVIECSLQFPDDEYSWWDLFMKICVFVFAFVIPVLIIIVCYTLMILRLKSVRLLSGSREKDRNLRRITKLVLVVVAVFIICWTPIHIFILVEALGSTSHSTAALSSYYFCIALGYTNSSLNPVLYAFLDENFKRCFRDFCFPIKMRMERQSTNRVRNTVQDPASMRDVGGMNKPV
The data set is described as follows: Opioid activity test using an extracted mouse vas deferens preparation, Ke with norBNI. Also on record: species or system male ddy mouse. The following applies: for Ke, norBNI: κ, norBNI added; for receptor selectivity of agonist (κ): in words.

Data set [2] deals with acetic acid-induced writhing in ddy mice. The data set is described as follows: animal or person. Type of data set: in vivo, 5 week old ddy mice. To be noted: s.c. 15 minutes before acetic acid. As for the experimental part:
5 week old ddy mice were used in this test. After intraperitoneal administration of 0.1 ml of 0.6% aqueous acetic acid per 10 g of body weight, the number of writhing reactions that occurred in 10 minutes starting 10 minutes after administration was evaluated for the indicator. The test drug was administered subcutaneously into the backs of the animals 15 minutes before administration of acetic acid.

A short description of data set [3]: Diuretic action (urine output for 5 hours after physiological saline loading in rats). Type of data set: in vivo, male Wistar rats. To be noted: for ED (200% urine output) / ED (500% urine output): Rattus norvegicus, sc, 5 hours after saline 20 ml/kg p.o.; for ED (200% urine output): dose giving urine output of 200 (non-dosed group = 100); for ED (500% urine output): dose giving urine output of 500 (non-dosed group = 100). In short, it runs like this:
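Doses reported as ED200/ED500, i.e. those raising 5 h urine output to 200 or 500 versus undosed rats set at 100. Subcutaneous dosing preceded an oral 20 ml/kg saline load by 30 min; male Wistar rats, 7-8 weeks, deprived of water 1 h beforehand.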

The subject of data set [4] is cultured nerve cells (cerebral cortex). To be noted: 10 mM glutamic acid, 24 hours.
Data set [5] has the same test system. Put plainly: cells. To be noted: Rattus norvegicus, Cerebral cortex neuron, 24 h, read-out: ED50 (protection against glutamic acid toxicity).
Where [6] appears, read: Mus musculus, sc, read-out: ED50.

For the compound `CN(C(=O)/C=C/c1ccccc1)[C@H]1CC[C@@]2(O)[C@H]3Cc4ccc(O)c5c4[C@@]2(CCN3CC2CC2)[C@H]1O5` [Compound 24, 17-cyclopropylmethyl-3,14β-dihydroxy-4,5α-epoxy-6α-(N-methylcinnamamido)morphinan.cndot.hydrochloride], inhibition in data set [1] was half-maximal at 121 pM (IC50). Also, the “Ke, Naloxone” value at μ receptor is 16.5 nM. Also, the “receptor selectivity of agonist (δ)” value at δ receptor (in words) was “selective agonists for δ receptors”. For the same compound, the “Ke, NTI” value at δ receptor was 0.426 nM. At κ receptor, the “Ke, norBNI” value is reported as 4.90 nM. In addition, in data set [2] (setting [6]), the ED50 amounted to 0.00575 mg/kg. In data set [3], this compound yielded an ED (200% urine output) of 0.00069 mg/kg and an ED (500% urine output) of 0.0063 mg/kg. In data set [3] (s.c., from ED200 values), the “Diuretic action (in words)” value is on record as “extremely strong diuretic action”. Moreover, the “Protective action against cytotoxicity caused by glutamic acid (in words)” value (shortened to “Protective action”) in data set [4] is “clearly demonstrated action that protects nerve cells from cytotoxicity caused by glutamic acid”. The EC50 in data set [5] came to 1.91 µM.
With `C[C@H](C(=O)N(C)[C@H]1CC[C@@]2(O)[C@H]3Cc4ccc(O)c5c4[C@@]2(CCN3CC2CC2)[C@H]1O5)c1ccccc1` [Compound 32, 17-cyclopropylmethyl-4,5α-epoxy-3,14β-dihydroxy-6α-[(S)-N-methyl-2-phenylpropionamido]morphinan.cndot.tartrate], the ED50 in data set [2] (setting [6]) was 0.29 mg/kg. In addition, the “Protective action” value in data set [4] is “clearly demonstrated action that protects nerve cells from cytotoxicity caused by glutamic acid”. Besides, in data set [5], the EC50 was 2.14 µM.
The corresponding values for `CN(C(=O)C1CCCCC1)[C@H]1CC[C@@]2(O)[C@H]3Cc4ccc(O)c5c4[C@@]2(CCN3CC2CC2)[C@H]1O5` [Compound 33, 17-cyclopropylmethyl-3,14β-dihydroxy-4,5α-epoxy-6α-(N-methylcyclohexylcarboxyamido)morphinan.cndot.hydrochloride] are 0.08 mg/kg, “clearly demonstrated action that protects nerve cells from cytotoxicity caused by glutamic acid” and 3.53 µM.
The like results for `CN(C(=O)c1ccccc1)[C@H]1CC[C@@]2(O)[C@H]3Cc4ccc(O)c5c4[C@@]2(CCN3CC2CC2)[C@H]1O5` [Compound 34, 17-cyclopropylmethyl-3,14β-dihydroxy-4,5α-epoxy-6α-(N-methylbenzamido)morphinan.cndot.hydrochloride] were, in that order, 0.21 mg/kg, “clearly demonstrated action that protects nerve cells from cytotoxicity caused by glutamic acid” and 0.18 µM.
Turning to `CN(C(=O)CCCc1ccccc1)[C@H]1CC[C@@]2(O)[C@H]3Cc4ccc(O)c5c4[C@@]2(CCN3CC2CC2)[C@H]1O5` [Compound 35, 17-cyclopropylmethyl-3,14β-dihydroxy-4,5α-epoxy-6α-(N-methyl-4-phenylbutyramido)morphinan.cndot.hydrochloride], the ED50 in data set [2] (setting [6]) worked out at 0.026 mg/kg. Also, in data set [3], the ED (200% urine output) came to 0.0245 mg/kg and the ED (500% urine output) was 5.19 mg/kg. In addition, the “Protective action” value in data set [4] is on record as “clearly demonstrated action that protects nerve cells from cytotoxicity caused by glutamic acid”. Also, in data set [5], the EC50 was determined as 0.64 µM.
On to `CN(C(=O)Cc1ccc(Cl)c(Cl)c1)[C@@H]1CC[C@@]2(O)[C@H]3Cc4ccc(O)c5c4[C@@]2(CCN3CC2CC2)[C@H]1O5` [Compound 53, 17-cyclopropylmethyl-4,5α-epoxy-3,14β-dihydroxy-6β-(N-methyl-3,4-dichlorophenylacetoamido)morphinan.cndot.hydrochloride], for which the IC50 in data set [1] came to 10300 pM. The “Ke, NTI” value at δ receptor is reported as 1676 nM. For the same compound, on κ receptor, the “receptor selectivity of agonist (κ)” value is “selective agonists for κ receptors” and the “Ke, norBNI” value came to 0.21 nM. Besides, the median effective dose (ED50) in data set [2] (setting [6]) was determined as 0.46 mg/kg. In data set [3], this compound returned an ED (200% urine output) of 0.135 mg/kg and an ED (500% urine output) of 0.658 mg/kg. Also, the “Protective action” value in data set [4] is “clearly demonstrated action that protects nerve cells from cytotoxicity caused by glutamic acid”. Moreover, in data set [5], the EC50 came to 2.51 µM.
With `CN(C(=O)OCc1ccccc1)[C@@H]1CC[C@@]2(O)[C@H]3Cc4ccc(O)c5c4[C@@]2(CCN3CC2CC2)[C@H]1O5` [Compound 56, 17-cyclopropylmethyl-3,14β-dihydroxy-4,5α-epoxy-6β-(N-methylbenzyloxycarbamido)morphinan.cndot.hydrochloride], the ED50 in data set [2] (setting [6]) stood at 0.00802 mg/kg. In data set [3], this compound showed an ED (200% urine output) of 0.0028 mg/kg and an ED (500% urine output) of 0.0518 mg/kg. Moreover, the “Protective action” value in data set [4] is given as “clearly demonstrated action that protects nerve cells from cytotoxicity caused by glutamic acid”. Besides, in data set [5], the EC50 came out at 5.23 µM.
Compound `CN(C(=O)CCc1ccccc1)[C@@H]1CC[C@@]2(O)[C@H]3Cc4ccc(O)c5c4[C@@]2(CCN3CC2CC2)[C@H]1O5` [Compound 57, 17-cyclopropylmethyl-3,14β-dihydroxy-4,5α-epoxy-6β-(N-methyl-3-phenylpropionamido)morphinan.cndot.hydrochloride] yielded an IC50 in data set [1] of 25.4 pM. In addition, the “Ke, NTI” value on δ receptor turned out to be 747 nM. For the same compound, on κ receptor, the “receptor selectivity of agonist (κ)” value is “selective agonists for κ receptors” and the “Ke, norBNI” value turned out to be 0.0124 nM. The ED50 in data set [2] (setting [6]) was determined as 0.04 mg/kg. Further, in data set [3], the ED (200% urine output) is 0.0424 mg/kg and the ED (500% urine output) was 1.26 mg/kg. In data set [4], the “Protective action” value is on record as “clearly demonstrated action that protects nerve cells from cytotoxicity caused by glutamic acid”. In data set [5], the EC50 worked out at 15.3 µM.
On to `CN(C(=O)COc1ccccc1)[C@@H]1CC[C@@]2(O)[C@H]3Cc4ccc(O)c5c4[C@@]2(CCN3CC2CC2)[C@H]1O5` [Compound 58, 17-cyclopropylmethyl-3,14β-dihydroxy-4,5α-epoxy-6β-(N-methylphenoxyacetamido)morphinan.cndot.tartrate], for which the median effective dose (ED50) in data set [2] (setting [6]) came out at 0.19 mg/kg. Besides, the “Protective action” value in data set [4] was “clearly demonstrated action that protects nerve cells from cytotoxicity caused by glutamic acid”. Besides, the EC50 in data set [5] is 16.7 µM.
Take `CN(C(=O)/C=C/c1ccccc1)[C@@H]1CC[C@@]2(O)[C@H]3Cc4ccc(O)c5c4[C@@]2(CCN3CC2CC2)[C@H]1O5` [Compound 99, 17-cyclopropylmethyl-3,14β-dihydroxy-4,5α-epoxy-6β-(N-methylcinnararido)morphinan.cndot.hydrochloride]: the IC50 in data set [1] was 674 pM. The “Ke, Naloxone” value on μ receptor turned out to be 94.5 nM. Moreover, at κ receptor, the “receptor selectivity of agonist (κ)” value was “selective agonists for κ receptors” and the “Ke, norBNI” value was 0.652 nM. In addition, the ED50 in data set [2] was 0.0018 mg/kg. Besides, in data set [3], the ED (200% urine output) worked out at 0.0011 mg/kg and the ED (500% urine output) turned out to be 0.0309 mg/kg. Besides, the “Protective action” value in data set [4] is reported as “clearly demonstrated action that protects nerve cells from cytotoxicity caused by glutamic acid”. In addition, the EC50 in data set [5] was 15.4 µM.
Consider `CCC/C=C/C(=O)N(C)[C@@H]1CC[C@@]2(O)[C@H]3Cc4ccc(O)c5c4[C@@]2(CCN3CC2CC2)[C@H]1O5` [Compound 100, 17-cyclopropylmethyl-3,14β-dihydroxy-4,5α-epoxy-6β-(N-methyl-trans-2-hexenamido)morphinan.cndot.tartrate], for which, in data set [1], the IC50 amounted to 647 pM. Further, the “Ke, Naloxone” value on μ receptor amounted to 1797 nM. Besides, at κ receptor, the “receptor selectivity of agonist (κ)” value is on record as “selective agonists for κ receptors” and the “Ke, norBNI” value came to 0.0717 nM. Moreover, the ED50 in data set [2] (setting [6]) is 0.024 mg/kg. In data set [3], this compound yielded an ED (200% urine output) of 0.0159 mg/kg and an ED (500% urine output) of 0.811 mg/kg. The “Protective action” value in data set [4] is on record as “clearly demonstrated action that protects nerve cells from cytotoxicity caused by glutamic acid”. In addition, the EC50 in data set [5] was found to be 1.74 µM.
As for `CN(C(=O)Cc1cccc(C(F)(F)F)c1)[C@H]1CC[C@@]2(O)[C@H]3Cc4ccc(O)c5c4[C@@]2(CCN3CC2CC2)[C@H]1O5` [Compound 108, 17-cyclopropylmethyl-3,14β-dihydroxy-4,5α-epoxy-6α-(N-methyl-3-trifluoromethylphenylacetamido)morphinan.cndot.hydrochloride], in data set [2] (setting [6]), the ED50 turned out to be 0.0064 mg/kg. In data set [3], this compound yielded an ED (200% urine output) of 0.021 mg/kg and an ED (500% urine output) of 5.11 mg/kg. The “Protective action” value in data set [4] was “clearly demonstrated action that protects nerve cells from cytotoxicity caused by glutamic acid”. In addition, in data set [5], the EC50 stood at 0.25 µM.
